# Data as given in PubChem BioAssay AID463206 (Broad Institute, 2010).
# The source made the active and inactive calls.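 How the source made its calls: active means caspase luminescence falls with dose and the half-maximal concentration AC50 from the fitted curve is at or below a set limit; inconclusive means flat fit at 30 to 70% signal loss, or invalid fit; inactive means AC50 above the limit, or signal rises instead.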
# System: INS-1E cytokine-induced caspase-3/7, Caspase-Glo luminescence, 48 h
# Test: inhibitors of cytokine-induced caspase-3/7 activity, dose response, orthogonal assay for beta-cell apoptosis protection project, INS-1E rat cells, luminescence (AID 463206)
row,SMILES,AC50
1,O=Nc1c(O)c2ccccc2c2ccccc12,> 26 µM (inactive)
2,C=C1C(=O)O[C@@H]2C[C@@H](C)[C@@H]3C=CC(=O)[C@@]3(C)[C@@H](OC(=O)CC(=O)O[C@H]3[C@@H]4C(=C)C(=O)O[C@@H]4C[C@@H](C)[C@@H]4C=CC(=O)[C@]43C)[C@H]12,> 26 µM (inactive)
3,Cn1c(/C=C/c2ccc([N+](=O)[O-])o2)nc2ccccc2c1=O,> 26 µM (inactive)
4,COc1ccc(Sc2nc(-c3ccccn3)ncc2OC)cc1,> 26 µM (inactive)
5,O=C(Nc1ccc(C(F)(F)F)cc1)C1CCN(S(=O)(=O)c2ccc(N3CCCC3=O)cc2)CC1,> 26 µM (inactive)
6,CCc1ccc(Nc2n[n+](-c3ccccc3)c(-c3c(Cl)cccc3Cl)s2)cc1,> 26 µM (inactive)
7,c1nc(NCc2ccc3c(c2)OCO3)c2cc(-c3ccc4c(c3)OCCO4)ccc2n1,> 26 µM (inactive)
8,NC1=NC[C@@H](CC2CCCCC2)N1CCc1cc(C(F)(F)F)cc(C(F)(F)F)c1,> 26 µM (inactive)
9,CCCC(=O)NC(c1ccc(N(C)C)cc1)c1ccc2cccnc2c1O (stereo not given),> 26 µM (inactive)
10,O=C1/C(=C/c2cccnc2)CCC/C1=C\c1cccnc1,> 26 µM (inactive)
11,Cc1ccc(C(C)C)c(OCc2ccc(C(=O)N/N=C/c3ccc(O)cc3O)cc2)c1,> 26 µM (inactive)
12,CCCCC1(Cc2ccc([N+](=O)[O-])cc2)C(=O)N(c2ccccc2)N(c2ccccc2)C1=O,> 26 µM (inactive)
13,CCCCCCCCCC[N+](C)(C)CC/C=C1/c2ccccc2Sc2ccc(Cl)cc21,> 26 µM (inactive)
14,COc1ccc(C(=O)N2CCN(c3ccc([N+](=O)[O-])c(NCCc4ccc(OC)c(OC)c4)c3)CC2)cc1,> 26 µM (inactive)
15,COc1ccc(C2=Nn3c(nnc3-c3ccccc3Cl)SC2)cc1OC1CCCC1,> 26 µM (inactive)
16,O=C(Nc1cccc(NC(=O)c2cc([N+](=O)[O-])ccc2Cl)n1)c1cc([N+](=O)[O-])ccc1Cl,3.73 µM
17,CCC(CO)Oc1cc(NCc2ccc(C(C)(C)C)cc2)c2ncn(C(C)C)c2c1 (stereo not given),> 26 µM (inactive)
18,FC(F)(F)c1ccccc1NC(=S)N1CCN(Cc2ccc3c(c2)OCO3)CC1,> 26 µM (inactive)
19,CC(C)COC(=O)c1ccc2c(c1O)C(=O)c1ccccc1C2=O,> 26 µM (inactive)
20,COc1ccc2nc3cc(Cl)ccc3c(Nc3cc(CN4CCCC4)c(O)c(CN4CCCC4)c3)c2n1,> 26 µM (inactive)
21,N#Cc1c2ccc([N+](=O)[O-])cc2[n+]([O-])n1-c1ccccc1,> 26 µM (inactive)
22,Cc1ccc(S(=O)(=O)N2CCN(c3ncnc4ccccc34)CC2)cc1,> 26 µM (inactive)
23,CC(=O)c1c(C)[nH]c(C(=O)CN2CCN(S(=O)(=O)c3ccccc3)CC2)c1C,> 26 µM (inactive)

row,SMILES,AC50
1,COc1ccc(C2=NNC(=Nc3cc(S(=O)(=O)N(C)C)ccc3C)SC2)c(OC)c1,24.8 µM
2,CC(C)CN(C(=O)COC(=O)C12CC3CC(CC(C3)C1)C2)c1c(N)n(Cc2ccccc2)c(=O)[nH]c1=O,> 26 µM (inactive)
3,C/C(=N\NC(=O)c1ccc(Cl)cc1)c1ccccn1,> 26 µM (inactive)
4,Nc1nonc1-n1nnc(C(=O)N/N=C/c2ccccc2O)c1CN1CCCC1,> 26 µM (inactive)
5,Cc1occc1C(=O)N1CCCC(N2CCN(c3cccc(C(F)(F)F)c3)CC2)C1 (stereo not given),> 26 µM (inactive)
6,CCCCC(=O)NC(c1ccccc1)c1ccc2cccnc2c1O (stereo not given),> 26 µM (inactive)
7,Cc1cc(Cl)c(S(=O)(=O)N2CCN(c3ccc(F)cc3)CC2)cc1OCC(=O)NC1CCCCC1,> 26 µM (inactive)
8,Cc1ccc(-c2cnc(NC(=O)CCC(=O)N(C)Cc3ccccc3)n2C)cc1,> 26 µM (inactive)
9,C#CCOCCOCCOCCNc1nc(N2CCN(C(=O)CCCCCCCCCCNC(=O)[C@H]([C@@H](C)CC)n3cc(CCCCN=C(N)N)nn3)CC2)nc(N2CCN(C(=O)CCCCCCCCCCNC(=O)[C@H](CO)n3cc(CCCCCN)nn3)CC2)n1,> 26 µM (inactive)
10,COc1cccc(N=Nc2ccc(O)c3ncccc23)c1,> 26 µM (inactive)
11,O=C(CNc1ccccc1)N/N=C/c1c(O)ccc2ccccc12,> 26 µM (inactive)
12,CC(CC(=O)N1CCN(c2cccc(Cl)c2)CC1)S(=O)(=O)c1ccc2c(c1)NC(=O)CO2 (stereo not given),> 26 µM (inactive)
13,C[n+]1c2n(c3ccccc31)N=C(c1cc(C(C)(C)C)c(O)c(C(C)(C)C)c1)CS2,> 26 µM (inactive)
14,Cc1ccc2[nH]c(C(=O)N/N=C/c3ccccc3O)c(C)c2c1,> 26 µM (inactive)
15,CN(Cc1ccccc1)C(=O)c1nc2ccccn2c1CN1CCCC1c1nccs1 (stereo not given),> 26 µM (inactive)
16,COc1cnc(-c2ccccn2)nc1NC(C)C,> 12 µM (inactive)
17,O=C1N/C(=N\N=C\c2cccnc2)SC1Cc1ccc(SC(F)F)cc1 (stereo not given),> 26 µM (inactive)
18,Cc1cc(C)n(-c2nc(NCCCO)c3c4c(sc3n2)CCCC4)n1,> 26 µM (inactive)
19,COCCC1CCCCN1C(=O)c1cc(COc2ccc(-n3cncn3)cc2)on1 (stereo not given),> 26 µM (inactive)
20,CCCCS(=O)(=O)/C=C\C=C/S(=O)(=O)CCCC,> 26 µM (inactive)
21,CCOc1ccc(-n2c(-c3ccccc3)c[n+]3c2CCCCC3)cc1,> 26 µM (inactive)
22,COc1ccc2nc(C)cc(SCC(=O)N/N=C/c3ccc(O)cc3O)c2c1,> 26 µM (inactive)
23,O=C(N/N=C/c1ccc([N+](=O)[O-])o1)c1cc2ccccc2o1,> 26 µM (inactive)

row,SMILES,AC50
1,COc1cccc(/C=N/Nc2nc3ccccc3[nH]2)c1O,> 26 µM (inactive)
2,CC(=O)Nc1ccc(S(=O)(=O)N2c3ccccc3NC(=O)CC2C)c(Cl)c1 (stereo not given),> 26 µM (inactive)
3,Cc1nc(Nc2cnc(/C=C/c3cc(C(=O)Nc4cccc(C(F)(F)F)c4)ccc3C)cn2)cc(N2CCNCC2)n1,> 26 µM (inactive)
4,CC(C)(C)c1ccc(OCc2ccc(C(=O)N/N=C/c3ccc(O)c(O)c3)cc2)cc1,> 26 µM (inactive)
5,Cc1cc(N/N=C/c2ccc(O)cc2O)nc(-n2nc(C)cc2C)n1,> 26 µM (inactive)
6,NC(N)=N/N=C/c1cn(-c2ccccc2)nc1-c1cccs1,> 26 µM (inactive)
7,CCC(Sc1nc(C)cc(C)n1)C(=O)NC1=NN=C(c2ccc(C)cc2)CS1 (stereo not given),> 26 µM (inactive)
8,Nc1nc(Cl)cc(N2CCC(c3cc(-c4ccc(Cl)cc4)n[nH]3)CC2)n1,> 26 µM (inactive)
9,CCc1ccc(C2=NNC(=Nc3cccc(S(=O)(=O)N(C)C)c3)SC2)cc1,> 26 µM (inactive)
10,Cc1cc(C(=O)N/N=C/c2cc(N=Nc3ccccc3)ccc2O)n[nH]1,> 26 µM (inactive)
11,Oc1c(C(Nc2ccccn2)c2ccccn2)ccc2cccnc12 (stereo not given),> 12 µM (inactive)
12,COc1ccc(Br)cc1CN(C)CC(=O)NCc1ccc(F)cc1,> 26 µM (inactive)
13,O=C(Nc1ccc(Nc2ccncc2)cc1)c1ccc(Nc2ccnc3ccc([N+](=O)[O-])cc23)cc1[N+](=O)[O-],> 26 µM (inactive)
14,O=C(N/N=C\c1c(O)ccc2ccccc12)c1ccc(S(=O)(=O)N2CCCCC2)cc1,> 26 µM (inactive)
15,COc1ccc(/C=N/Nc2cc(C)nc3ccc(OC)cc23)c(OC)c1,10.7 µM
16,COc1cc(SC#N)ccc1N=Cc1c(C)[nH]n(-c2ccc(C)c(C)c2)c1=O,> 26 µM (inactive)
17,C=CC[n+]1c(/C=C2\C=Cc3cc(C)ccc3N2CC)ccc2ccccc21,> 26 µM (inactive)
18,CC1CCC/C=C/C2CC(O)CC2C(O)/C=C/C(=O)O1 (stereo not given),> 26 µM (inactive)
19,CCn1c(=O)c(C(=O)Nc2nc3ccccc3[nH]2)c(O)c2ccccc21,> 26 µM (inactive)
20,CC(C)(C)OC(=O)NCc1ccc(NC(=O)c2nc[nH]c2C(=O)NCCNC(=O)c2[nH]cnc2C(=O)Nc2ccc(CNC(=O)OC(C)(C)C)cc2)cc1,> 26 µM (inactive)
21,CCOC(=O)N1CCN(Cc2cc(Cl)c3cccnc3c2O)CC1,> 26 µM (inactive)
22,O=[N+]([O-])c1ccc(-c2nc(C(Cl)Cl)c3ccccc3n2)cc1,0.62 µM
23,CC(C)(C)c1cc(C(=O)N/N=C/c2ccc([N+](=O)[O-])s2)n[nH]1,> 26 µM (inactive)

row,SMILES,AC50
1,CCN(CC)CCNC(=O)c1ccc2c(c1NCCO)C(=O)c1ccccc1C2=O,> 26 µM (inactive)
2,CCOC(=O)N1CCN(S(=O)(=O)c2ccc(C(=O)NNc3nc4c(C)cc(C)cc4s3)cc2)CC1,> 26 µM (inactive)
3,O=C(c1cc(COc2ccc3ncccc3c2)on1)N1CCCCCC1,> 26 µM (inactive)
4,COc1ccc(C(C(=O)NC2CCCCC2)N(C(=O)CCl)c2cccc(Cl)c2)cc1 (stereo not given),> 26 µM (inactive)
5,CC(C)C(=O)NC(c1ccccc1)c1cc([N+](=O)[O-])c2cccnc2c1O (stereo not given),> 26 µM (inactive)
6,Cc1ccc(C(=O)Nc2cccc3[nH]c(C(F)(F)F)nc23)cc1,> 26 µM (inactive)
7,N=c1c2c(n(Cc3cccc(Cl)c3)c3c1CCC3)CCCC2,> 26 µM (inactive)
8,O=C(CCC(=O)Nc1ccc(Br)cc1)N/N=C/c1ccccc1O,> 26 µM (inactive)
9,O=C1C=C(c2ccc(F)cc2OCc2ccccc2)C[C@@H](c2ccc(Cl)cc2)C1,> 26 µM (inactive)
10,CCCCNc1c(-c2cccc(-c3ccc(OC)cc3)c2)nc2ccc(C)cn12,> 26 µM (inactive)
11,O=C(N/N=C(\c1ccccc1)c1ccccn1)c1cccc([N+](=O)[O-])c1,> 26 µM (inactive)
12,COC(=O)C1CN(C#N)N(c2ccc(Cl)cc2)C12c1ccccc1-c1ccccc12 (stereo not given),> 26 µM (inactive)
13,Cc1ccc(-c2c(C#N)c(N)n3c(nc4ccccc43)c2C#N)cc1,> 26 µM (inactive)
14,O=C(Nc1ccc(F)cc1)Nc1cc(OCC(F)(F)F)cc(OCC(F)(F)F)c1,> 26 µM (inactive)
15,NC(=S)N/N=C/c1c(O)ccc2ccccc12,> 26 µM (inactive)
16,COc1ccc(C(=O)N/N=C(\C)c2ccccn2)cc1OC,> 26 µM (inactive)
17,CC(=O)c1ccc(N2CCN(S(=O)(=O)c3ccc4c(c3)CC(C)N4C(C)=O)CC2)cc1 (stereo not given),> 26 µM (inactive)
18,COc1ccc(-n2cc(-c3ccccc3)[n+]3c2CCCCC3)cc1,> 26 µM (inactive)
19,Oc1ccc(Br)cc1CNc1cccc2cccnc12,> 26 µM (inactive)
20,COc1cc(NC(C)CCCN)c2ncccc2c1 (stereo not given),> 26 µM (inactive)
21,Fc1ccc(-c2cc(-c3nnc4n3CCCCC4)c3ccccc3n2)cc1,> 26 µM (inactive)
